The source of these data is ChEMBL document CHEMBL5465560, “Selectivity Literature for EUbOPEN Chemogenomic Library” (2024).

Assay [1] has as its target T1, Ephrin type-A receptor 6 (Homo sapiens) (UniProt Q9UF33).
T1 sequence (whole entry): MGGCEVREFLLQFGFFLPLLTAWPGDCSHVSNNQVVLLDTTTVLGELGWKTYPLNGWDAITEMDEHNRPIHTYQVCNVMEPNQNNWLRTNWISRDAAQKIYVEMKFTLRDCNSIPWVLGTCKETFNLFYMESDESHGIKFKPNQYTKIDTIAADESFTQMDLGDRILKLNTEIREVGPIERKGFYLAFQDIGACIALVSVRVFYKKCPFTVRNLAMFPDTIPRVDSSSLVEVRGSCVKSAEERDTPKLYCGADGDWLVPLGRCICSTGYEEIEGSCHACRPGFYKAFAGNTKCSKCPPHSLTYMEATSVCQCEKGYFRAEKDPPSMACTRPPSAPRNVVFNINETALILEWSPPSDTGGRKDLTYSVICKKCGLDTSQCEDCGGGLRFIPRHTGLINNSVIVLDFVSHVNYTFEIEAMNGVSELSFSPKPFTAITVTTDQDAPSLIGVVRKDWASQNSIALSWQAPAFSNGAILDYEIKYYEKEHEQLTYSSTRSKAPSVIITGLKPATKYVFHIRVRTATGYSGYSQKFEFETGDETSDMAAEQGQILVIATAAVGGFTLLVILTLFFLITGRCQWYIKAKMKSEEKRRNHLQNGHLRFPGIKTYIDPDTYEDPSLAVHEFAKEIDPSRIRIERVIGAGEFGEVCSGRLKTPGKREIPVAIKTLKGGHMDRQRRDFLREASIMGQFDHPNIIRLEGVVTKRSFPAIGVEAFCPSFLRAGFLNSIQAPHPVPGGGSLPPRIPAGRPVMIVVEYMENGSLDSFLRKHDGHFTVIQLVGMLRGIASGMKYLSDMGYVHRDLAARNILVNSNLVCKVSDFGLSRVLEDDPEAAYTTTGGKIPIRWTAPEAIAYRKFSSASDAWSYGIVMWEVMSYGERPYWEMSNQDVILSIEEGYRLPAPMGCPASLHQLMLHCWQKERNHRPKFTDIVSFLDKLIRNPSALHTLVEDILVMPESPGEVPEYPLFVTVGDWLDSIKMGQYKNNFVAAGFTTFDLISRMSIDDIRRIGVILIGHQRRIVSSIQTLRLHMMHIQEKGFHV
Nature of the assay: Selectivity interaction (Ambit KINOMEscan and KiNATiv profiling in Jurkat cells) EUB0000090b EPHA6. The note with it: at 1 µM. Type of assay: cell-based.

Assay [2] deals with T2, Tyrosine-protein kinase JAK3 (Homo sapiens) (UniProt P52333).
T2 sequence (whole entry): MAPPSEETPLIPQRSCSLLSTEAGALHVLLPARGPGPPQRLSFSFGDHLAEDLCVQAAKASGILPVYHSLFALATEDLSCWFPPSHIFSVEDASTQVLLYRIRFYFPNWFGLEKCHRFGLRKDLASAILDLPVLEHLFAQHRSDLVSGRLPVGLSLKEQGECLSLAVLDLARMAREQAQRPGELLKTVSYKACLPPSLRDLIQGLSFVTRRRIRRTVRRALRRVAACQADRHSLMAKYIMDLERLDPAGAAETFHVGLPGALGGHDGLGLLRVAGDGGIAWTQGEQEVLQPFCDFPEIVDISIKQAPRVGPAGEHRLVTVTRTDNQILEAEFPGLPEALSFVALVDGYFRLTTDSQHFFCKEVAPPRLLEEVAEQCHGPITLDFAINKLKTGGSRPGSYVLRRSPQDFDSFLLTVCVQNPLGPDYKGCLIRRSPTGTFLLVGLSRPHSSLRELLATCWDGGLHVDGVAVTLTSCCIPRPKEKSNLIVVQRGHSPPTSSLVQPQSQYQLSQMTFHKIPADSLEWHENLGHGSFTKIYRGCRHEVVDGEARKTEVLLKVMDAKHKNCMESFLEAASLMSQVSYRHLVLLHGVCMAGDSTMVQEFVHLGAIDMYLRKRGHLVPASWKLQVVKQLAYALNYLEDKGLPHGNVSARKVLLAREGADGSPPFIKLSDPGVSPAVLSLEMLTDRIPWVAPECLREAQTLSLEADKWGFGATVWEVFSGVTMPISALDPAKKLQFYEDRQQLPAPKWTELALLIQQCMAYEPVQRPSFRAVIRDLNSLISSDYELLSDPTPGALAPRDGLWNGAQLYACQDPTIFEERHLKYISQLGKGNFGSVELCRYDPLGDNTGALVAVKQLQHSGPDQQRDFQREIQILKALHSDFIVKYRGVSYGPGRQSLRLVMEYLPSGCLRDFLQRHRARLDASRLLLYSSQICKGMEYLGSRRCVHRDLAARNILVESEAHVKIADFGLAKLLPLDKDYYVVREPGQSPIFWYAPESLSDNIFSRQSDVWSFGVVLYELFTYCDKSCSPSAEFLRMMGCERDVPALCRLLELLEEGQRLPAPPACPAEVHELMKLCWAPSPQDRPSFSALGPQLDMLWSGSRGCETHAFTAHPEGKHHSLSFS
The assay can be described thus: Selectivity interaction (KinomeScan (DiscoverX)) EUB0001079a JAK3. Conditions: at 1 µM.

The target of assay [3] is Serine/threonine-protein kinase Chk2 (Homo sapiens) (UniProt O96017). Nature of the assay: Selectivity interaction (KinomeScan (DiscoverX)) EUB0000092b CHEK2. Conditions: at 10 µM.
Sequence of Serine/threonine-protein kinase Chk2 (Homo sapiens) (O96017 whole entry): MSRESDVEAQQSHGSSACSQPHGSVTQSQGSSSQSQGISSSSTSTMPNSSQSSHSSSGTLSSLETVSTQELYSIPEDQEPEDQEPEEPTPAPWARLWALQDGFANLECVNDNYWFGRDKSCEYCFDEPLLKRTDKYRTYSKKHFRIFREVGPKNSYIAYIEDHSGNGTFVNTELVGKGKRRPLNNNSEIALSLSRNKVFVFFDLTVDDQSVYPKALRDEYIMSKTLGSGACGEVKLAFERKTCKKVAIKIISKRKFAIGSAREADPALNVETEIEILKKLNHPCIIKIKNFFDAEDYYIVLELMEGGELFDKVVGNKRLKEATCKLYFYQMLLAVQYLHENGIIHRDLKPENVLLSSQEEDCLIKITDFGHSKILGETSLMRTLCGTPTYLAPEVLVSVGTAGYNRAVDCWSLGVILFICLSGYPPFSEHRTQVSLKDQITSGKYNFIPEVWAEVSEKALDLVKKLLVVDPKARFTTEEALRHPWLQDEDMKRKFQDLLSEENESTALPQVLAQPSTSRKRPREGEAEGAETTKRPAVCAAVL
Assay [4] deals with Protein kinase C delta type (Homo sapiens) (UniProt Q05655). The assay can be described thus: Selectivity interaction (KinomeScan (DiscoverX)) EUB0000655a PRKCD. The note with it: at 10 µM.
Sequence of Protein kinase C delta type (Homo sapiens) (Q05655 whole entry, looked up): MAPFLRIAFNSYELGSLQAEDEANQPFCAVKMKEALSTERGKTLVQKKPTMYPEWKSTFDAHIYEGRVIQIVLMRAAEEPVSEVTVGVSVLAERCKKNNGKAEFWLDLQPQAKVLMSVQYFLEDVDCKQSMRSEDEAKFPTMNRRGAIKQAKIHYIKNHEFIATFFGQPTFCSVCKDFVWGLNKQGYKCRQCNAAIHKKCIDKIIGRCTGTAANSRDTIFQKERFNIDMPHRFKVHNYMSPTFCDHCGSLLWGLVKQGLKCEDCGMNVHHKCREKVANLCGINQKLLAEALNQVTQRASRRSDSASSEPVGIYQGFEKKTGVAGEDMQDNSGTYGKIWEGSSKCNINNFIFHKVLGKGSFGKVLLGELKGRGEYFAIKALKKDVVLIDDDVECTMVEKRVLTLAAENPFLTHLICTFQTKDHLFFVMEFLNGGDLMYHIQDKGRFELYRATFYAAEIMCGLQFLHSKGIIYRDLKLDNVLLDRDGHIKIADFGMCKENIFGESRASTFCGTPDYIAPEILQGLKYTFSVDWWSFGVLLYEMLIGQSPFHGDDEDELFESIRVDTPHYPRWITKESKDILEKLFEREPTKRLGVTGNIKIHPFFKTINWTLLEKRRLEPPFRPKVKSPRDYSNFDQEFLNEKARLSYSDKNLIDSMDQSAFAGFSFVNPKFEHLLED
Assay [5] concerns the target Ribosomal protein S6 kinase alpha-5 (Homo sapiens) (UniProt O75582). Nature of the assay: Selectivity interaction (Kinase screening (Nanosyn)) EUB0000604a RPS6KA5.
The target of assay [6] is Nuclear body protein SP140-like protein (Homo sapiens) (UniProt Q9H930). The assay can be described thus: Selectivity interaction (Bromodomain panel (DSF asssay)) EUB0000270b SP140L.
Sequence of Nuclear body protein SP140-like protein (Homo sapiens) (Q9H930 whole entry): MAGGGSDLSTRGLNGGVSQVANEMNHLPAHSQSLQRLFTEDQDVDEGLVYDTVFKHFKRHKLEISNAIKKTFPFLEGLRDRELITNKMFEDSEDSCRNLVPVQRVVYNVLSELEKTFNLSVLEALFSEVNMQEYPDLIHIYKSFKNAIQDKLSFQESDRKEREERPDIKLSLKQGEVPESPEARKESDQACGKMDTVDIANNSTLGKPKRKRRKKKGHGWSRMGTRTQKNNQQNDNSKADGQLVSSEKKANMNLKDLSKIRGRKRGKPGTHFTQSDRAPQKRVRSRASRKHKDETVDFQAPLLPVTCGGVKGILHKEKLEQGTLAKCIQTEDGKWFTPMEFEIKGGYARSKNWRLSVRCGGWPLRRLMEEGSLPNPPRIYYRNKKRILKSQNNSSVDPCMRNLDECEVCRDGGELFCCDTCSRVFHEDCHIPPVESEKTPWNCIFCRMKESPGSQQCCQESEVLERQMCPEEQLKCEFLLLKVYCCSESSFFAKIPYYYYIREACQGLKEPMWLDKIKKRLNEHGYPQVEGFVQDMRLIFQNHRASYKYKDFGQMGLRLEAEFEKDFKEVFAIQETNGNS
The target of assay [7] is Dual specificity mitogen-activated protein kinase kinase 1 (Homo sapiens, UniProt Q02750). Nature of the assay: Selectivity interaction (ActivX KiNativ screen (kinase selectivity in THP-1 cell lysates)) EUB0000639a MAP2K1. The assay is classed as subcellular. Conditions: lysate, at 0.04 µM.
Sequence of Dual specificity mitogen-activated protein kinase kinase 1 (Q02750 whole entry): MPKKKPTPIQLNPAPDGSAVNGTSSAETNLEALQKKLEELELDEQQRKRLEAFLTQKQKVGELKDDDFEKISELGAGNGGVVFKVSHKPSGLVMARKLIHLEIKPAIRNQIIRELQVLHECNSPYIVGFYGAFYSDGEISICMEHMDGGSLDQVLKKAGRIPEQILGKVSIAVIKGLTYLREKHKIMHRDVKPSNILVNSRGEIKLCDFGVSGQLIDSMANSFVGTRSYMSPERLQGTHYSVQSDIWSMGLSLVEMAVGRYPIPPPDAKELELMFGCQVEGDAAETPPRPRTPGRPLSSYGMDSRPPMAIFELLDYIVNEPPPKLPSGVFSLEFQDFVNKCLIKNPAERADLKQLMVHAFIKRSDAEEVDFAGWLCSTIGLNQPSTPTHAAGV
Assay [8] concerns the target Ribosomal protein S6 kinase alpha-2 (Homo sapiens) (UniProt Q15349). Nature of the assay: Selectivity interaction (KinomeScan (DiscoverX)) EUB0001619a RPS6KA2. Conditions: at 1 µM.
Assay [9] has as its target STE20/SPS1-related proline-alanine-rich protein kinase (Homo sapiens) (UniProt Q9UEW8). Nature of the assay: Selectivity interaction (KinomeScan (DiscoverX)) EUB0001619a STK39. Conditions: at 1 µM.

Sequence of Ribosomal protein S6 kinase alpha-2 (Homo sapiens) (Q15349 whole entry): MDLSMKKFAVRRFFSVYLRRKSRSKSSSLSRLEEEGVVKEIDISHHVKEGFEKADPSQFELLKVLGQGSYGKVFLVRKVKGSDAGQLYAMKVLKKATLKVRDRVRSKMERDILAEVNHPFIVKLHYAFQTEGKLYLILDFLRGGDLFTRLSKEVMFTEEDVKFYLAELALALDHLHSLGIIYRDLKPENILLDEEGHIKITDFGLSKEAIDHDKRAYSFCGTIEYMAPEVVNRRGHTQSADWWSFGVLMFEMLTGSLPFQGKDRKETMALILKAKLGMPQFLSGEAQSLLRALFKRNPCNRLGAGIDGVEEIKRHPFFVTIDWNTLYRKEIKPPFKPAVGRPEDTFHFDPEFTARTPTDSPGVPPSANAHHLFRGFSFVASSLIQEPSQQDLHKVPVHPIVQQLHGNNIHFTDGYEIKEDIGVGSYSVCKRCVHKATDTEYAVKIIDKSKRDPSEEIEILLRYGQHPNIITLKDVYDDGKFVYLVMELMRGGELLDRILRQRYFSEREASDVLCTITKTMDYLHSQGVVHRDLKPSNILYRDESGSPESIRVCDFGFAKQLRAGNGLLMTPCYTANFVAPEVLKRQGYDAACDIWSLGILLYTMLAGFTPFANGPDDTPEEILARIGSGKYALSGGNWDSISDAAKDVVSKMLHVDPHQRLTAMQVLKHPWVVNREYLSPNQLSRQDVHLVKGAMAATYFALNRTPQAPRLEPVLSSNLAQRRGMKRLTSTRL
Sequence of Ribosomal protein S6 kinase alpha-5 (Homo sapiens) (O75582 whole entry, looked up): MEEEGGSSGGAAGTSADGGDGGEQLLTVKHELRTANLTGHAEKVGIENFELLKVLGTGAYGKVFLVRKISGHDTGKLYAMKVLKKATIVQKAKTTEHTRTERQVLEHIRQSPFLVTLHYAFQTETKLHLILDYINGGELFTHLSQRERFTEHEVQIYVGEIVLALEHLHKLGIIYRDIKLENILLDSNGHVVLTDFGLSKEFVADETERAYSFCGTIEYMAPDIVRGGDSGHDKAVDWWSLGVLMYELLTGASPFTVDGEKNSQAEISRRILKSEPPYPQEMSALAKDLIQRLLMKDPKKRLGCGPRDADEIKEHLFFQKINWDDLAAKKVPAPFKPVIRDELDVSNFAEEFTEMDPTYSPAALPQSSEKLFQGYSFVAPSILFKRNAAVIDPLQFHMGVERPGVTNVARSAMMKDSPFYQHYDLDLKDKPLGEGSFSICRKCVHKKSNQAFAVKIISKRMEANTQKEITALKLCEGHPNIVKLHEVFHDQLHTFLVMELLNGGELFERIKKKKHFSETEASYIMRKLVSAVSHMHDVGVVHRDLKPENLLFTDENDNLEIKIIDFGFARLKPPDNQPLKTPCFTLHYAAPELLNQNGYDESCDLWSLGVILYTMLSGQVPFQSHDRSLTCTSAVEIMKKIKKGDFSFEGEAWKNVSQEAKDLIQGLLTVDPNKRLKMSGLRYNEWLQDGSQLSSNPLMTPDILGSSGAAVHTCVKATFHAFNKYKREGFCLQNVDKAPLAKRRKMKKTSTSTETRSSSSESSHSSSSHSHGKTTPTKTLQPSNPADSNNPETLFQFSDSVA

Compound `CN(C)C/C=C/C(=O)Nc1ccc(C(=O)N2CCCC(Nc3ncc(Cl)c(-c4c[nH]c5ccccc45)n3)C2)cc1` (centres undefined) displayed a % of control in assay [1] of 93%.
`Nc1cnc(N2CCc3cc(S(=O)(=O)Nc4c(F)cc(Cl)cc4F)cc(N4CCCC4=O)c32)nc1` [TP-020n] displayed a % of control in [2] of 100%.
Consider `CCC(=O)N1CCN(c2ccc(-n3c(=O)ccc4cnc5ccc(-c6cnc7ccccc7c6)cc5c43)cc2C(F)(F)F)CC1`, for which, in [3], the % of control stood at 100%.
In assay [4], `CN(C)CCOc1ccc(-c2nc(-c3ccncc3)c(-c3ccc4c(c3)CC/C4=N\O)[nH]2)cc1` yielded a % of control of 89%.
The compound `Cc1cnc(Nc2ccc(F)cc2Cl)nc1-c1c[nH]c(C(=O)N[C@H](CO)c2cccc(Cl)c2)c1` came in with a % of inhibition in assay [5] of 7%.
For `Cc1cc(CN)cc(C)c1-c1ncn(C)c1-c1cncn1C`, the dTM in assay [6] is -2.98 K.
As to `CC[C@@H]1[C@H](F)C(=O)N[C@@H]1COc1nccc2cc(C(N)=O)c(OC)cc12` [ZIMLOVISERTIB], the % of inhibition in [7] was 5.6%.
Consider `N#Cc1cccc(-c2c[nH]c3ncnc(N4CCOCC4)c23)c1`, for which the % of control in [8] is 82%; in assay [9] it was 92%.
